# Measurements reported in patent US20250277001A1, “PEPTIDE DERIVATIVES AND RELATED USES AS OREXIN AGONISTS” (CENTESSA PHARMACEUTICALS (UK) LIMITED, priority 2022, published 2025).
# Where two headings read alike, the source gives them in different places. Where a SMILES comes first, the peptide text is derived from it. [ ]: non-standard residue; d: D form. The star is where a group is joined. Malonyl(2,2-Me2,histaminyl) = CC(C)(C(=O)NCCc1cnc[nH]1)C(=O)*; hArg(Et2) = CCN=C(NCC)NCCCC[C@H](N)C(=O)O; d(hArg) = N=C(N)NCCCC[C@@H](N)C(=O)O; Gly(NCH2CH2Ph) = O=C(O)CNCCc1ccccc1; Hyp = O=C(O)[C@@H]1C[C@@H](O)CN1; hArg = N=C(N)NCCCC[C@H](N)C(=O)O; NMeN = CN[C@@H](CC(N)=O)C(=O)O; Aoc(2) = CCCCCC[C@H](N)C(=O)O; Phg = N[C@H](C(=O)O)c1ccccc1; Nle = CCCC[C@H](N)C(=O)O
# Key:
# [1] = target: T1, human orexin type 1 receptor (hOX1R) (Homo sapiens, UniProt O43613); experiment: Measurement of orexin type 1 receptor agonist activity (CHO cells, FLIPR TETRA intracellular Ca2+); format: cell-based
# T1 construct: expressed in transfected cells
# T1 sequence (O43613 1-425): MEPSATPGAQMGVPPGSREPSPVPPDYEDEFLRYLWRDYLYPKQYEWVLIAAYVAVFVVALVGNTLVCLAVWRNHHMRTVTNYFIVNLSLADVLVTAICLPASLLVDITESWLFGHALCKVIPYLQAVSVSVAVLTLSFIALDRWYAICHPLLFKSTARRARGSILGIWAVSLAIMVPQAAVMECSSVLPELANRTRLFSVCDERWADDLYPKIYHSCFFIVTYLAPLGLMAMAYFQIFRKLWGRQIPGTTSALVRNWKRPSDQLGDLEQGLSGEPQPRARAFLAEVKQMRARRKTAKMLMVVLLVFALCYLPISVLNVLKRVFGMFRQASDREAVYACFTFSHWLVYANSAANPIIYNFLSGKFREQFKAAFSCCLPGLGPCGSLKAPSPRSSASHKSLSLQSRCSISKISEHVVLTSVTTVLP
# Text: (§1) In some embodiments, the assay uses cells stably expressing either human orexin type 2 or human orexin type 1 receptor. In some embodiments, the cells are obtained by inserting the Orexin receptor cDNA into pcDNA3.1(+) plasmid vector, identifying clones by G418 drug resistance selection, and/or growing a single clone for OX2R-CHO and OX1R-CHO in bulk. In some embodiments, the assay is detected using Fluorescent Imaging Plate Reader TETRA (FLIPR TETRA: manufactured by Molecular Devices). In some embodiments, the agonist activity of the test peptide is calculated assuming that the fluorescence value of the well containing only the dilution buffer is 0% and the fluorescence value of the well containing 10 nM human orexin A (Tocris) buffer is 100%.
# (§2) Stable cell line generation. Obtainment of cells stably expressing either human orexin type 2 or human orexin type 1 receptor: to obtain a stable cell line the Orexin receptor cDNA was inserted into pcDNA3.1(+) plasmid vector and clones identified by G418 drug resistance selection. […] A single clone for OX2R-CHO and OX1R-CHO were grown in bulk and frozen to generate a cell bank for routine screening.
# (§3) Measurement of orexin type 1 receptor agonist activity. Chinese hamster ovary (CHO) cells expressing human orexin type 1 receptor (hOX1R) were seeded in each well of 384 well black clear bottom plates (BD Flacon) at 10,000 cells per well and cultured for 24 h in an Ham's F12 (Gibco) medium containing 10% fetal calf serum (Sigma Aldrich) under the conditions of 37° C., 5% CO2. After removal of the medium, 50 μL of assay buffer 1 (0.1% bovine serum albumin (Sigma Aldrich), 20 mM HEPES (Molecular Dimensions), […] probenecid (Sigma Aldrich), 1× Calcium 5 dye (Molecular Devices) in Hank's balanced salt solution (Invitrogen)) was added, and the cells were incubated for 60 min under the conditions of 37° C., 5% CO2. A test peptide was dissolved in dimethyl sulfoxide (Sigma Aldrich) to 1 mM, and then diluted with assay buffer 2 (20 mM HEPES, Hank's balanced salt solution, 0.1% bovine serum albumin). For the reaction, a test peptide solution (10 μl) was added using Fluorescent Imaging Plate Reader TETRA (FLIPR TETRA: manufactured by Molecular Devices), a fluorescence value (excitation wavelength 488 nm, measurement wavelength 570 nm) of each well was measured every one second for 2 min, and the agonist activity was determined using the area of the fluorescence value as an indicator of intracellular Ca^2+ concentration. The agonist activity of the test peptide was calculated assuming that the fluorescence value of the well added with only the dilution buffer was 0% and the fluorescence value of the well added with 10 nM human orexin A (Tocris) buffer was 100%. As used herein, Emax indicates the value at 1 μM concentration when orexin A is converted to a full agonist (maximum value of agonist activity: 100%).
# [2] = target: T2, human orexin type 2 receptor (hOX2R) (Homo sapiens, UniProt O43614); experiment: Measurement of orexin type 2 receptor agonist activity (CHO cells, FLIPR TETRA intracellular Ca2+); format: cell-based
# T2 construct: expressed in transfected cells
# T2 sequence (O43614 1-444): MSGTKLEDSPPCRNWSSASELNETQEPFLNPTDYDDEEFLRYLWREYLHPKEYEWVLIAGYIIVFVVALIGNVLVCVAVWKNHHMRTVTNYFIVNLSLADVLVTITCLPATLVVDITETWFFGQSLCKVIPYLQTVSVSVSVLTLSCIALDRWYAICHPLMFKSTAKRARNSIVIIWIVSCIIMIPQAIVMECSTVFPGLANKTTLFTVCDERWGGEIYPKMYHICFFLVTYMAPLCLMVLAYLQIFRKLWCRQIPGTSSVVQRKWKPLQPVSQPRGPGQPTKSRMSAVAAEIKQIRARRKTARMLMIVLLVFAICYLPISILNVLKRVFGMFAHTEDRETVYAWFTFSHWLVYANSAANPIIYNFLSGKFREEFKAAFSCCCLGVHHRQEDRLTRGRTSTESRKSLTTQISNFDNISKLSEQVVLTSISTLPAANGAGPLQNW
# Text: as §1, §2
# as §3, with “type 2” for “type 1”, “receptor (hOX2R)” for “receptor (hOX1R) were”
# [3] = CHO cells expressing hOX1R, Ca2+ fluorescence, read-out: hOX1 pEC50 (converted)
# [4] = CHO cells expressing hOX2R, Ca2+ fluorescence, read-out: hOX2 pEC50 (converted)
"EC50 [1, 3]","EC50 [2, 4]",Compound,EC50 [1],EC50 [2]
1 to 10 nM,< 0.1 nM,CCCCCC[C@H](NC(=O)[C@@H](NC(=O)[C@H](CC(C)C)NC(=O)[C@@H](NC(=O)CNC(=O)[C@@H](NC(=O)[C@H](C)NC(=O)[C@@H]1C[C@@H](O)CN1C(=O)[C@H](CC(N)=O)NC(=O)CN(CCc1ccccc1)C(=O)[C@H](CCCNC(=N)N)NC(=O)[C@H](CCCNC(=N)N)NC(=O)[C@@H]1C[C@@H](O)CN1C(=O)[C@@H]1C[C@@H](O)CN1C(=O)[C@@H]1C[C@@H](O)CN1)c1ccccc1)[C@@H](C)CC)[C@@H](C)O)C(N)=O [compound 15] (H-[Hyp][Hyp][Hyp]RR[Gly(NCH2CH2Ph)]N[Hyp]A[Phg]GILT[Aoc(2)]-NH2),,
,,"CCCCCC[C@H](NC(=O)[C@@H](NC(=O)[C@H](CC(C)C)NC(=O)[C@@H](NC(=O)CNC(=O)[C@@H](NC(=O)[C@H](C)NC(=O)[C@@H]1C[C@@H](O)CN1C(=O)[C@H](CC(N)=O)N(C)C(=O)CN(CCc1ccccc1)C(=O)[C@H](CCCNC(=N)N)NC(=O)[C@H](CCCNC(=N)N)NC(=O)[C@@H]1CCCN1C(=O)[C@H](CCCCNC(=N)N)NC(=O)[C@H](CCC(N)=O)NC(=O)C(C)(C)C(=O)NCCc1cnc[nH]1)c1ccccc1)[C@@H](C)CC)[C@@H](C)O)C(N)=O [compound 17] ({Malonyl(2,2-Me2,histaminyl)}-Q[hArg]PRR[Gly(NCH2CH2Ph)][NMeN][Hyp]A[Phg]GILT[Aoc(2)]-NH2)",> 10 nM,< 0.1 nM
,,"CCCCCC[C@H](NC(=O)[C@@H](NC(=O)[C@H](CC(C)C)NC(=O)[C@@H](NC(=O)CNC(=O)[C@@H](NC(=O)[C@H](C)NC(=O)[C@@H]1C[C@@H](O)CN1C(=O)[C@H](CC(N)=O)N(C)C(=O)CN(CCc1ccccc1)C(=O)[C@H](CCCNC(=N)N)NC(=O)[C@H](CCCNC(=N)N)NC(=O)[C@@H]1CCCN1C(=O)[C@H](CCCCNC(=N)N)NC(=O)[C@@H](CCC(N)=O)NC(=O)C(C)(C)C(=O)NCCc1cnc[nH]1)c1ccccc1)[C@@H](C)CC)[C@@H](C)O)C(N)=O [compound 19] ({Malonyl(2,2-Me2,histaminyl)}-[dQ][hArg]PRR[Gly(NCH2CH2Ph)][NMeN][Hyp]A[Phg]GILT[Aoc(2)]-NH2)",> 10 nM,< 0.1 nM
,,"CCCCCC[C@H](NC(=O)[C@@H](NC(=O)[C@H](CC(C)C)NC(=O)[C@@H](NC(=O)CNC(=O)[C@@H](NC(=O)[C@H](C)NC(=O)[C@H](Cc1c[nH]cn1)NC(=O)[C@H](CC(N)=O)NC(=O)CN(CCc1ccccc1)C(=O)[C@H](CCCCNC(=NCC)NCC)NC(=O)[C@@H]1CCCN1C(=O)[C@H](CCCCNC(=N)N)NC(=O)[C@H](CCC(N)=O)NC(=O)C(C)(C)C(=O)NCCc1cnc[nH]1)c1ccccc1)[C@@H](C)CC)[C@@H](C)O)C(N)=O [compound 1] ({Malonyl(2,2-Me2,histaminyl)}-Q[hArg]P[hArg(Et2)][Gly(NCH2CH2Ph)]NHA[Phg]GILT[Aoc(2)]-NH2)",> 10 nM,< 0.1 nM
,,"CCCCCC[C@H](NC(=O)[C@@H](NC(=O)[C@H](CC(C)C)NC(=O)[C@@H](NC(=O)CNC(=O)[C@@H](NC(=O)[C@H](C)NC(=O)[C@@H]1C[C@@H](O)CN1C(=O)[C@H](CC(N)=O)N(C)C(=O)CN(CCc1ccccc1)C(=O)[C@H](CCCNC(=N)N)NC(=O)[C@H](CCCNC(=N)N)NC(=O)[C@H]1CCCN1C(=O)[C@@H](CCCCNC(=N)N)NC(=O)[C@@H](CCC(N)=O)NC(=O)C(C)(C)C(=O)NCCc1cnc[nH]1)c1ccccc1)[C@@H](C)CC)[C@@H](C)O)C(N)=O [compound 18] ({Malonyl(2,2-Me2,histaminyl)}-[dQ][d(hArg)][dP]RR[Gly(NCH2CH2Ph)][NMeN][Hyp]A[Phg]GILT[Aoc(2)]-NH2)",> 10 nM,< 0.1 nM
,,"CCCCCC[C@H](NC(=O)[C@@H](NC(=O)[C@H](CC(C)C)NC(=O)[C@@H](NC(=O)CNC(=O)[C@@H](NC(=O)[C@H](C)NC(=O)[C@@H]1C[C@@H](O)CN1C(=O)[C@H](CC(N)=O)NC(=O)CN(CCc1ccccc1)C(=O)[C@H](CCCNC(=N)N)NC(=O)[C@H](CCCNC(=N)N)NC(=O)[C@@H]1CCCN1C(=O)[C@H](CCCCNC(=N)N)NC(=O)[C@@H](CCC(N)=O)NC(=O)C(C)(C)C(=O)NCCc1cnc[nH]1)c1ccccc1)[C@@H](C)CC)[C@@H](C)O)C(N)=O [compound 20] ({Malonyl(2,2-Me2,histaminyl)}-[dQ][hArg]PRR[Gly(NCH2CH2Ph)]N[Hyp]A[Phg]GILT[Aoc(2)]-NH2)",1 to 10 nM,< 0.1 nM
> 10 nM,< 0.1 nM,CCCC[C@H](NC(=O)[C@@H](NC(=O)[C@H](CC(C)C)NC(=O)[C@@H](NC(=O)CNC(=O)[C@H](C)NC(=O)[C@H](C)NC(=O)[C@H](Cc1c[nH]cn1)NC(=O)[C@H](CC(N)=O)NC(=O)CNC(=O)[C@H](CO)NC(=O)[C@@H](C)NC(=O)[C@@H](Cc1ccccc1)NC(=O)[C@@H](CC(C)C)NC(=O)[C@@H](N)CC(C)C)[C@@H](C)CC)[C@@H](C)O)C(N)=O [compound 14] (H-L[dL][dF][dA]SGNHAAGILT[Nle]-NH2),,
,,"CCCCCC[C@H](NC(=O)[C@@H](NC(=O)[C@H](CC(C)C)NC(=O)[C@@H](NC(=O)CNC(=O)[C@@H](NC(=O)[C@H](C)NC(=O)[C@@H]1C[C@@H](O)CN1C(=O)[C@H](CC(N)=O)N(C)C(=O)CN(CCc1ccccc1)C(=O)[C@H](CCCNC(=N)N)NC(=O)[C@@H]1CCCN1C(=O)[C@@H](CCCCNC(=N)N)NC(=O)[C@@H](CCC(N)=O)NC(=O)C(C)(C)C(=O)NCCc1cnc[nH]1)c1ccccc1)[C@@H](C)CC)[C@@H](C)O)C(N)=O [compound 7] ({Malonyl(2,2-Me2,histaminyl)}-[dQ][d(hArg)]PR[Gly(NCH2CH2Ph)][NMeN][Hyp]A[Phg]GILT[Aoc(2)]-NH2)",> 10 nM,< 0.1 nM
